Source: patent US20210228484A1, “VETERINARY THICK GEL COMPOSITION OF HIGH PALATABILITY CONTAINING ANTIOXIDANTS TO DECREASE SARCOPENIA, OSTEOPENIA AND DNA DAMAGE FROM OXIDATIVE STRESS IN DOGS, AND PROCEDURE FOR ITS OBTENTION” (priority 2018, published 2021)

Test system: oxidative stress
Assay: Overall effect of the antioxidant dietary complement on oxidative stress biomarkers in dogs
Assay type: in vivo
Details: provided alone
Description: The evaluated biomarkers let us assure that the provision of antioxidants, particularly the mixtures of at least two antioxidants selected from Resveratrol. Pterostilbene and Vitamin E, as a dietary complement had the following effects. 1) decrease of oxidative stress, 2) highly significant decrease in the loss of skeletal muscle (CPK), 3) highly significant decrease in the loss of bone mass (ALP), and 4) decrease of 12-15% in the loss of (8(OH)dG) DNA. […] It is also possible to observe that the Vitamin E that was provided alone produced a lesser effect, compared to that of the mixture of two antioxidants that were jointly provided.

For `CC(=O)Oc1c(C)c(C)c2c(c1C)CCC(C)(CCCC(C)CCCC(C)CCCC(C)C)O2` (racemic) [Vitamin E, DL-alpha tocopherol acetate], the “effect on the biomarkers compared to the mixture of two antioxidants” value was “lesser effect”.
